These results are taken from patent US11318151B2, “Compound pharmaceutical composition for treating skin inflammatory diseases” (Hefei Industrial Pharmaceutical Institute Co., Ltd., priority 2018, dated 2022).

Test [1] deals with Phorbol Ester-Induced Mouse Ear Swelling Model. Description: Phorbol ester-induced mouse ear swelling model. To be noted: 6 h after modeling; for Right ear (ear thickness): phorbol ester 5 μg/20 μL/ear, drug 20 μL/ear 30 min before and 15 min after modeling, thickness gauge; for Swelling degree: right minus left ear thickness, drug 20 μL/ear in DMSO 30 min before and 15 min after modeling; for Inhibition rate of the swelling: vs. model group, ear thickness. The test is classed as in vivo, SPF ICR mice. As to the method: 1. Therapeutic Effects of the Compound Pharmaceutical Composition of the Disclosure on a Phorbol Ester-Induced Mouse Ear Swelling Model
SPF ICR mice, male, 18-22 g, randomly divided into compound groups with different compound ratios and a model group according to body weight, 10 mice for each group. The test drug is dissolved in a 20 μL solvent of DMSO. The specific group numbers are as follows:
(1) Compound groups with different compound ratios
Tofacitinib:crisaborole=2 mg:2 mg/20 μL (dose ratio=1:1; group a); tofacitinib:crisaborole=2 mg:1 mg/20 μL (dose ratio=2:1; group b); tofacitinib:crisaborole=2 mg:0.5 mg/20 μL (dose ratio=4:1; group c); tofacitinib:crisaborole=2 mg:0.25 mg/20 μL (dose ratio=8:1; group d); tofacitinib:crisaborole=2 mg:0.2 mg/20 μL (dose ratio=10:1; group e); tofacitinib:crisaborole=2 mg:0.125 mg/20 μL (dose ratio=16:1; group f); tofacitinib:crisaborole=1 mg: 2 mg/20 μL (dose ratio=1:2; group g); tofacitinib:crisaborole=0.5 mg:2 mg/20 μL (dose ratio=1:4; group h); tofacitinib:crisaborole=0.25 mg:2 mg/20 μL (dose ratio=1:8; group i); tofacitinib:crisaborole=0.2 mg:2 mg/20 μL (dose ratio=1:10; group j); tofacitinib:crisaborole=0.125 mg:2 mg/20 μL (dose ratio=1:16; group k). (2) Model Group (3) Crisaborole (4 mg/20 ul) (4) Tofacitinib (4 mg/20 ul) (5) Blank group: applying with 20 μL DMSO as a solvent for comparison. Experimental Method:
For the mice of each group, 20 ul (5 μg/20 μL/ear) of phorbol ester is applied to the front and back of the right ear for modeling, and 20 μL solvent medium (acetone) is applied to the left ear; except for the model group, the right ears of the mice in each administration group are applied with corresponding drugs 20 μL/ear 30 minutes before and 15 minutes after modeling, respectively. 6 h after modeling, the ear swelling is measured with a thickness gauge as an indicator of inflammation; then, the animals are sacrificed, the ears are cut and punched with a 6 mm punch, the ear pieces are weighed, and the swelling degree (weight) is calculated.

The subject of test [2] is atopic dermatitis. To be noted: topical 2% tofacitinib, clinical phase II; cited from earlier work.

Turning to `N#Cc1ccc(Oc2ccc3c(c2)COB3O)cc1` [Crisaborole, crisaborole], in test [1], the “Right ear (ear thickness)” value is 43.0 ± 3.7 10^−2 mm, the Swelling degree is reported as 13.3 ± 3.4^Δ 10^−2 mm and the “Inhibition rate of the swelling” value worked out at 30.0%.
Turning to `C[C@@H]1CCN(C(=O)CC#N)C[C@@H]1N(C)c1ncnc2[nH]ccc12` [Tofacitinib, tofacitinib], in test [1], the “Right ear (ear thickness)” value is recorded as 41.6 ± 3.4 10^−2 mm, the Swelling degree was 12.4 ± 3.2^ΔΔ 10^−2 mm and the “Inhibition rate of the swelling” value was found to be 34.7%. In addition, in test [2], the “itching symptoms in patients” value is “can improve itching symptoms in patients” and the “therapeutic effect on atopic dermatitis” value was “a certain therapeutic effect on atopic dermatitis”.
